Tested on: Genes belonging to other category
Assay: DNA chip mRNA expression in yeast, genes belonging to other category (Table 9)
Type: cell-based, Saccharomyces cerevisiae S288C
In short: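 Measured as treated-to-untreated fluorescence ratio on a full-genome yeast DNA chip. Cells (S288C, YPD, 25° C.) were exposed in log phase for two hours to one chemical, dosed to curb growth without killing.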

N#Cc1c(Cl)c(Cl)c(Cl)c(C#N)c1Cl [(9), 2,4,5,6-tetrachloro-1,3-benzenedicarbonitrile]
The level of expressed mRNA in the presence of chemical substance/The level of expressed mRNA in the absence of chemical substance (yeast gene YER009W): 0.7 | The level of expressed mRNA in the presence of chemical substance/The level of expressed mRNA in the absence of chemical substance (yeast gene YER012W): 6.7 | The level of expressed mRNA in the presence of chemical substance/The level of expressed mRNA in the absence of chemical substance (yeast gene YER029C): 1.4 | The level of expressed mRNA in the presence of chemical substance/The level of expressed mRNA in the absence of chemical substance (yeast gene YER039C): 1.2 | The level of expressed mRNA in the presence of chemical substance/The level of expressed mRNA in the absence of chemical substance (yeast gene YER094C): 2.3 | The level of expressed mRNA in the presence of chemical substance/The level of expressed mRNA in the absence of chemical substance (yeast gene YER098W): 2.8 | The level of expressed mRNA in the presence of chemical substance/The level of expressed mRNA in the absence of chemical substance (yeast gene YER107C): 0.4 | The level of expressed mRNA in the presence of chemical substance/The level of expressed mRNA in the absence of chemical substance (yeast gene YER130C): 0.5 | The level of expressed mRNA in the presence of chemical substance/The level of expressed mRNA in the absence of chemical substance (yeast gene YER136W): 1.4 | The level of expressed mRNA in the presence of chemical substance/The level of expressed mRNA in the absence of chemical substance (yeast gene YER177W): 1.8 | The level of expressed mRNA in the presence of chemical substance/The level of expressed mRNA in the absence of chemical substance (yeast gene YER184C): 4.6 | The level of expressed mRNA in the presence of chemical substance/The level of expressed mRNA in the absence of chemical substance (yeast gene YFL022C): 0.5 | The level of expressed mRNA in the presence of chemical substance/The level of expressed mRNA in the absence of chemical substance (yeast gene YFL028C): 2.7 | The level of expressed mRNA in the presence of chemical substance/The level of expressed mRNA in the absence of chemical substance (yeast gene YFL038C): 2.1 | The level of expressed mRNA in the presence of chemical substance/The level of expressed mRNA in the absence of chemical substance (yeast gene YFL043C): 2.2 | The level of expressed mRNA in the presence of chemical substance/The level of expressed mRNA in the absence of chemical substance (yeast gene YFR050C): 3.1 | The level of expressed mRNA in the presence of chemical substance/The level of expressed mRNA in the absence of chemical substance (yeast gene YGL011C): 2.0 | The level of expressed mRNA in the presence of chemical substance/The level of expressed mRNA in the absence of chemical substance (yeast gene YGL048C): 2.4 | The level of expressed mRNA in the presence of chemical substance/The level of expressed mRNA in the absence of chemical substance (yeast gene YGL158W): −0.4 | The level of expressed mRNA in the presence of chemical substance/The level of expressed mRNA in the absence of chemical substance (yeast gene YGL208W): 1.4 | The level of expressed mRNA in the presence of chemical substance/The level of expressed mRNA in the absence of chemical substance (yeast gene YGL229C): 1.8 | The level of expressed mRNA in the presence of chemical substance/The level of expressed mRNA in the absence of chemical substance (yeast gene YGR120C): 0.3 | The level of expressed mRNA in the presence of chemical substance/The level of expressed mRNA in the absence of chemical substance (yeast gene YGR131W): 1.9 | The level of expressed mRNA in the presence of chemical substance/The level of expressed mRNA in the absence of chemical substance (yeast gene YGR136W): 2.1 | The level of expressed mRNA in the presence of chemical substance/The level of expressed mRNA in the absence of chemical substance (yeast gene YGR189C): 0.3 | The level of expressed mRNA in the presence of chemical substance/The level of expressed mRNA in the absence of chemical substance (yeast gene YGR213C): 7.5 | The level of expressed mRNA in the presence of chemical substance/The level of expressed mRNA in the absence of chemical substance (yeast gene YGR257C): 1.5 | The level of expressed mRNA in the presence of chemical substance/The level of expressed mRNA in the absence of chemical substance (yeast gene YHL024W): 2.1 | The level of expressed mRNA in the presence of chemical substance/The level of expressed mRNA in the absence of chemical substance (yeast gene YHR004C): 1.1 | The level of expressed mRNA in the presence of chemical substance/The level of expressed mRNA in the absence of chemical substance (yeast gene YHR012W): 4.9 | The level of expressed mRNA in the presence of chemical substance/The level of expressed mRNA in the absence of chemical substance (yeast gene YHR071W): 1.0 | The level of expressed mRNA in the presence of chemical substance/The level of expressed mRNA in the absence of chemical substance (yeast gene YHR109W): 2.4 | The level of expressed mRNA in the presence of chemical substance/The level of expressed mRNA in the absence of chemical substance (yeast gene YHR124W): 3.0 | The level of expressed mRNA in the presence of chemical substance/The level of expressed mRNA in the absence of chemical substance (yeast gene YHR139C): 107.2 | The level of expressed mRNA in the presence of chemical substance/The level of expressed mRNA in the absence of chemical substance (yeast gene YHR142W): 0.4 | The level of expressed mRNA in the presence of chemical substance/The level of expressed mRNA in the absence of chemical substance (yeast gene YHR160C): 2.3 | The level of expressed mRNA in the presence of chemical substance/The level of expressed mRNA in the absence of chemical substance (yeast gene YHR163W): 1.4 | The level of expressed mRNA in the presence of chemical substance/The level of expressed mRNA in the absence of chemical substance (yeast gene YHR171W): 2.1 | The level of expressed mRNA in the presence of chemical substance/The level of expressed mRNA in the absence of chemical substance (yeast gene YIL123W): 0.1 | The level of expressed mRNA in the presence of chemical substance/The level of expressed mRNA in the absence of chemical substance (yeast gene YIL140W): 0.7 | The level of expressed mRNA in the presence of chemical substance/The level of expressed mRNA in the absence of chemical substance (yeast gene YIR018W): 4.0 | The level of expressed mRNA in the presence of chemical substance/The level of expressed mRNA in the absence of chemical substance (yeast gene YJL073W): 1.7 | The level of expressed mRNA in the presence of chemical substance/The level of expressed mRNA in the absence of chemical substance (yeast gene YJL089W): 1.6 | The level of expressed mRNA in the presence of chemical substance/The level of expressed mRNA in the absence of chemical substance (yeast gene YJL113W): 1.3 | The level of expressed mRNA in the presence of chemical substance/The level of expressed mRNA in the absence of chemical substance (yeast gene YJL116C): 2.4 | The level of expressed mRNA in the presence of chemical substance/The level of expressed mRNA in the absence of chemical substance (yeast gene YJL146W): 1.0 | The level of expressed mRNA in the presence of chemical substance/The level of expressed mRNA in the absence of chemical substance (yeast gene YJR004C): 0.3 | The level of expressed mRNA in the presence of chemical substance/The level of expressed mRNA in the absence of chemical substance (yeast gene YJR036C): 1.4 | The level of expressed mRNA in the presence of chemical substance/The level of expressed mRNA in the absence of chemical substance (yeast gene YJR058C): 1.9 | The level of expressed mRNA in the presence of chemical substance/The level of expressed mRNA in the absence of chemical substance (yeast gene YJR086W): 1.4
